Test results taken from ChEMBL document CHEMBL1144037, “Structural requirements for the stability of novel cephalosporins to AmpC beta-lactamase based on 3D-structure” (2008).
In brackets after ≈: the same amount, converted by molar mass.

Experiments:
Assay type in all cases: functional
Pseudomonas aeruginosa [1] = assay: Antibacterial activity against Pseudomonas aeruginosa PAO1 after 18 hrs by agar dilution method; conditions: PAO1, 18 h
Pseudomonas aeruginosa [2] = assay: Antibacterial activity against Pseudomonas aeruginosa PAO1 ampD-deffective mutant after 18 hrs by agar dilution method; conditions: PAO1, 18 h
Pseudomonas aeruginosa [3] = assay: Antibacterial activity against Pseudomonas aeruginosa FP1380 after 18 hrs by agar dilution method; conditions: FP1380, 18 h

Compound	MIC (Pseudomonas aeruginosa [1]) [µg/mL]	MIC (Pseudomonas aeruginosa [2]) [µg/mL]	MIC (Pseudomonas aeruginosa [3]) [µg/mL]
CCCc1c[n+](CC2=C(C(=O)[O-])N3C(=O)[C@@H](NC(=O)/C(=N\OC(C)(C)C(=O)O)c4nsc(N)n4)[C@H]3SC2)n(C)c1N	2 (≈ 3.29 µM)	1 (≈ 1.65 µM)	
Cn1c(N)c(CCCCCN)c[n+]1CC1=C(C(=O)[O-])N2C(=O)[C@@H](NC(=O)/C(=N\OC(C)(C)C(=O)O)c3nsc(N)n3)[C@H]2SC1	2 (≈ 3.07 µM)	1 (≈ 1.54 µM)	
Cn1c(N)c(N)c[n+]1CC1=C(C(=O)[O-])N2C(=O)[C@@H](NC(=O)/C(=N\OC(C)(C)C(=O)O)c3nsc(N)n3)[C@H]2SC1	4 (≈ 6.89 µM)	0.5 (≈ 0.861 µM)	
Cn1c(N)c(CCCCN)c[n+]1CC1=C(C(=O)[O-])N2C(=O)[C@@H](NC(=O)/C(=N\OC(C)(C)C(=O)O)c3nsc(N)n3)[C@H]2SC1	1 (≈ 1.57 µM)	0.5 (≈ 0.785 µM)	
Cn1c(CCN)cc[n+]1CC1=C(C(=O)[O-])N2C(=O)[C@@H](NC(=O)/C(=N\OC(C)(C)C(=O)O)c3nsc(N)n3)[C@H]2SC1.O=S(=O)(O)O	1	0.5	
Cn1c(N)c(CN)c[n+]1CC1=C(C(=O)[O-])N2C(=O)[C@@H](NC(=O)/C(=N\OC(C)(C)C(=O)O)c3nsc(N)n3)[C@H]2SC1	4 (≈ 6.73 µM)	0.5 (≈ 0.841 µM)	
CC(C)(O/N=C(\C(=O)N[C@@H]1C(=O)N2C(C(=O)[O-])=C(C[n+]3ccc(N)n3CCO)CS[C@H]12)c1nsc(N)n1)C(=O)O.Cl	0.5	4	16
CC(C)(O/N=C(\C(=O)N[C@@H]1C(=O)N2C(C(=O)[O-])=C(C[n+]3ccccc3)CS[C@H]12)c1csc(N)n1)C(=O)O [CEFTAZIDIME]			128 (≈ 234 µM)
